US9040663B2, “Melanocortin receptor-specific peptides” (AstraZeneca AB, priority 2009, dated 2015)
pEC50, pKi: −log10 of the molar value. Like-named read-outs stand apart in the source and are kept apart here. Positions of bridges follow the written chain, without caps; N, C: chain ends. Non-standard residues stand in square brackets, D forms with d. Residues, ends and D or L forms follow the SMILES beside them. dPhe(4-CN) = N#Cc1ccc(C[C@@H](N)C(=O)O)cc1; Orn = NCCC[C@H](N)C(=O)O

Legend:
hMC4-R [1] = target: T1, hMC4-R (Homo sapiens (Human), UniProt P32245); test: High and low density hMC4-R functional assay (cAMP, HEK293-T-REx-MC4-R cells); format: cell-based; details: for Emax: NDP-α-MSH = 100%, read-out: Intrinsic Activity (%)
T1 sequence (P32245 whole entry): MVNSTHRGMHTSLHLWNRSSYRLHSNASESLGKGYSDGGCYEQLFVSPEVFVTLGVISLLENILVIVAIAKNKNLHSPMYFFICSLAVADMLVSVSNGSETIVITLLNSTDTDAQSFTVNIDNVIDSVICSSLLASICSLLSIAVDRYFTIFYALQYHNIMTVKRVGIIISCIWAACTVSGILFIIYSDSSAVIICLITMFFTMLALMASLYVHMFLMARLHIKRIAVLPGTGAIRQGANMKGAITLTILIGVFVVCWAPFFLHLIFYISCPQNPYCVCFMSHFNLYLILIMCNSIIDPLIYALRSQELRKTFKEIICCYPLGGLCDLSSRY

hMC4-R [2] = target: T1, hMC4-R; test: Competitive inhibition binding assay using [I125]-NDP-α-MSH, hMC4-R; details: membranes of HEK-293 cells expressing recombinant hMC4-R, read-out: MC4-R Ki
MC1-R = test: Competitive inhibition binding assay using [I125]-NDP-α-MSH, MC1-R; details: membranes of B-16 mouse melanoma cells (endogenous MC1-R), in some instances HEK-293 hMC1-R
Method: 7.1 Competitive Inhibition Assay using [I^125]-NDP-α-MSH.
A competitive inhibition binding assay was performed for exemplified peptides according to the invention using membrane homogenates prepared from HEK-293 cells that express recombinant hMC4-R, hMC3-R, or hMC5-R, and from B-16 mouse melanoma cells (containing endogenous MC1-R). In some instances, HEK-293 cells that express recombinant hMC1-R were employed. Assays were performed in 96 well GF/B Millipore multiscreen filtration plates (MAFB NOB10) pre-coated with 0.5% bovine serum albumin (Fraction V). Membrane homogenates were incubated with 0.2 nM (for hMC4-R) 0.4 nM (for MC3-R and MC5-R) or 0.1 nM (for mouse B16 MC1-R or hMC1-R) [I^125]-NDP-α-MSH (Perkin Elmer) and increasing concentrations of test peptides of the present invention in buffer containing 25 mM HEPES buffer (pH 7.5) with 100 mM NaCl, 2 mM CaCl2, 2 mM MgCl2, 0.3 mM 1,10-phenanthroline, and 0.2% bovine serum albumin. After incubation for 60 minutes at 37° C., the assay mixture was filtered and the membranes washed three times with ice-cold buffer. Filters were dried and counted in a gamma counter for bound radioactivity. […] Maximal specific binding (100%) was defined as the difference in radioactivity (cpm) bound to cell membranes in the absence and presence of 1 μM NDP-α-MSH. […] Each assay was conducted in triplicate and the actual mean values are described, with results less than 0% reported as 0%. Ki values for test peptides of the present invention were determined using Graph-Pad Prism® curve-fitting software.

[3] = 0.1 ng/mL Doxycycline (low density hMC4-R system)
[4] = 10 ng/mL Doxycycline (high density hMC4-R system)

Compound | Emax (hMC4-R [1]; [3]) [%] | Emax (hMC4-R [1]; [4]) [%] | pKi (hMC4-R [2]) | pKi (MC1-R) | pEC50 (hMC4-R [1]; [4]) | pEC50 (hMC4-R [1]; [3])
CC(=O)N[C@@H](CCCNC(=N)N)C(=O)N[C@H]1CCC(=O)NCCC[C@@H](C(N)=O)NC(=O)[C@H](Cc2c[nH]c3ccccc23)NC(=O)[C@H](CCCNC(=N)N)NC(=O)[C@@H](Cc2ccc(C#N)cc2)NC(=O)[C@H](C)NC1=O [Example 41, Ac-Arg-cyclo(Glu-Ala-D-Phe(4-CN)-Arg-Trp-Orn)-NH2] (Ac-REA[dPhe(4-CN)]RW[Orn]-NH2; lactam 2-7) | 5 | 84 | 8.52 | 5.37 | 9.10 | 
CC(=O)N[C@@H](CCCNC(=N)N)C(=O)N[C@H]1CCC(=O)NCCC[C@@H](C(N)=O)NC(=O)[C@H](Cc2c[nH]c3ccccc23)NC(=O)[C@H](CCCNC(=N)N)NC(=O)[C@@H](Cc2cc(F)cc(F)c2)NC(=O)[C@H](CC(N)=O)NC1=O [Example 76, Ac-Arg-cyclo(Glu-Asn-D-Phe(3,4-diF)-Arg-Trp-Orn)-NH2] | 53 | 85 | 7.70 | 6.59 | 9.87 | 8.52
CC(=O)N[C@@H](CCCNC(=N)N)C(=O)N[C@H]1CCC(=O)NCCC[C@@H](C(N)=O)NC(=O)[C@H](Cc2c[nH]c3ccccc23)NC(=O)[C@H](CCCNC(=N)N)NC(=O)[C@@H](Cc2ccc(C#N)cc2)NC(=O)[C@H]([C@@H](C)O)NC1=O [Example 44, Ac-Arg-cyclo(Glu-Thr-D-Phe(4-CN)-Arg-Trp-Orn)-NH2] | 22 | 99 | 7.74 | 5.79 |  | 7.96
CC(=O)N[C@@H](CCCNC(=N)N)C(=O)N[C@H]1CCC(=O)NCCC[C@@H](C(N)=O)NC(=O)[C@H](Cc2c[nH]c3ccccc23)NC(=O)[C@H](CCCNC(=N)N)NC(=O)[C@@H](Cc2ccccc2Cl)NC(=O)[C@H](Cc2cccc(C(N)=O)c2)NC1=O [Example 48, Ac-Arg-cyclo(Glu-Phe(3-C(═O)—NH2)-D-Phe(2-Cl)-D-Phe-Arg-Trp-Orn)-NH2] | 6 | 93 | 7.82 | 6.26 | 8.40 | 
CC(=O)N[C@@H](CCCNC(=N)N)C(=O)N[C@H]1CCC(=O)NCCC[C@@H](C(N)=O)NC(=O)[C@H](Cc2c[nH]c3ccccc23)NC(=O)[C@H](CCCNC(=N)N)NC(=O)[C@@H](Cc2ccc(Cl)c(Cl)c2)NC(=O)[C@H](CCN)NC1=O [Example 5, Ac-Arg-cyclo(Glu-Dab-D-Phe(3,4-diCl)-Arg-Trp-Orn)-NH2] | 5 | 92 | 10.26 | 9.70 | 9.42 | 
CC(=O)N[C@@H](CCCNC(=N)N)C(=O)N[C@H]1CCC(=O)NCCC[C@@H](C(=O)O)NC(=O)[C@H](Cc2c[nH]c3ccccc23)NC(=O)[C@H](CCCNC(=N)N)NC(=O)[C@@H](Cc2cccc(Cl)c2)NC(=O)[C@H](CCCN)NC1=O [Example 55, Ac-Arg-cyclo(Glu-Orn-D-Phe(3-Cl)-Arg-Trp-Orn)-OH] | 28 | 98 | 7.70 | 7.64 | 9.10 | 8.00
CC(=O)N[C@@H](CCCNC(=N)N)C(=O)N[C@H]1CCC(=O)NCCC[C@@H](C(N)=O)NC(=O)[C@H](Cc2c[nH]c3ccccc23)NC(=O)[C@H](CCCNC(=N)N)NC(=O)[C@@H](Cc2ccc(Cl)cc2Cl)NC(=O)[C@H](CCN)NC1=O [Example 4, Ac-Arg-cyclo(Glu-Dab-D-Phe(2,4-diCl)-Arg-Trp-Orn)-NH2] | 11 | 100 | 10.26 | 9.30 | 9.61 | 
CC(=O)N[C@@H](CCCNC(=N)N)C(=O)N[C@H]1CCC(=O)NCCC[C@@H](C(N)=O)NC(=O)[C@H](Cc2c[nH]c3ccccc23)NC(=O)[C@H](CCCNC(=N)N)NC(=O)[C@@H](Cc2ccccc2F)NC(=O)[C@@H]2C[C@@H](O)CN2C1=O [Example 64, Ac-Arg-cyclo(Glu-Hyp-D-Phe(2-F)-Arg-Trp-Orn)-NH2] | 57 | 90 | 8.52 | 7.28 | 10.10 | 9.00
CC(=O)N[C@@H](CCCNC(=N)N)C(=O)N[C@H]1CCC(=O)NCCC[C@@H](C(N)=O)NC(=O)[C@H](Cc2c[nH]c3ccccc23)NC(=O)[C@H](CCCNC(=N)N)NC(=O)[C@@H](Cc2ccccc2C(F)(F)F)NC(=O)[C@H](CCN)NC1=O [Example 13, Ac-Arg-cyclo(Glu-Dab-D-Phe(2-CF3)-Arg-Trp-Orn)-NH2] | 85 | 96 | 9.22 | 8.52 | 10.22 | 9.90
CC(=O)N[C@H](CCCNC(=N)N)C(=O)N[C@H]1CCCNC(=O)CC[C@@H](C(N)=O)NC(=O)[C@H](Cc2c[nH]c3ccccc23)NC(=O)[C@H](CCCNC(=N)N)NC(=O)[C@@H](Cc2ccc(F)cc2)NC(=O)[C@H](Cc2c[nH]cn2)NC1=O [Example 57, Ac-D-Arg-cyclo(Orn-His-D-Phe(4-F)-Arg-Trp-Glu)-NH2] | 89 | 100 | 9.19 | 9.00 | 10.02 | 9.60
CC(=O)N[C@@H](CCCNC(=N)N)C(=O)N[C@H]1CCC(=O)NCCC[C@@H](C(N)=O)NC(=O)[C@H](Cc2c[nH]c3ccccc23)NC(=O)[C@H](CCCNC(=N)N)NC(=O)[C@@H](Cc2cccc(Cl)c2)NC(=O)[C@@H]2C[C@@H](O)CN2C1=O [Example 37, Ac-Arg-cyclo(Glu-Hyp-D-Phe(3-Cl)-Arg-Trp-Orn)-NH2] | 6 | 90 | 8.70 | 6.37 | 9.26 | 

More lines, now with the values ahead:

Emax (hMC4-R [1]; [3]) [%] | Emax (hMC4-R [1]; [4]) [%] | pKi (hMC4-R [2]) | pKi (MC1-R) | pEC50 (hMC4-R [1]; [4]) | pEC50 (hMC4-R [1]; [3]) | Compound
68 | 100 | 8.30 | 6.39 |  |  | CC(=O)N[C@@H](CCCNC(=N)N)C(=O)N[C@H]1CCCNC(=O)CC[C@@H](C(N)=O)NC(=O)[C@H](Cc2c[nH]c3ccccc23)NC(=O)[C@H](CCCNC(=N)N)NC(=O)[C@@H](Cc2ccccc2C)NC(=O)[C@H](CC(N)=O)NC1=O [Example 74, Ac-Arg-cyclo(Orn-Asn-D-Phe(2-Me)-Arg-Trp-Glu)-NH2]
41 | 98 | 7.96 | 7.52 | 9.52 | 8.30 | CC(=O)NCC[C@@H]1NC(=O)[C@@H](NC(=O)[C@H](CCCNC(=N)N)NC(C)=O)CCC(=O)NCCC[C@@H](C(N)=O)NC(=O)[C@H](Cc2c[nH]c3ccccc23)NC(=O)[C@H](CCCNC(=N)N)NC(=O)[C@@H](Cc2ccccc2Cl)NC1=O [Example 56, Ac-Arg-cyclo(Glu-Dab(Acetyl)-D-Phe(2-Cl)-Arg-Trp-Orn)-NH2]
34 | 96 | 7.96 | 6.27 |  | 7.74 | CC(=O)N[C@@H](CCCNC(=N)N)C(=O)N[C@H]1CCC(=O)NCCC[C@@H](C(N)=O)NC(=O)[C@H](Cc2c[nH]c3ccccc23)NC(=O)[C@H](CCCNC(=N)N)NC(=O)[C@@H](Cc2ccccc2Cl)NC(=O)[C@H]([C@@H](C)O)NC1=O [Example 32, Ac-Arg-cyclo(Glu-Thr-D-Phe(2-Cl)-Arg-Trp-Orn)-NH2]
54 | 108 | 8.40 | 6.63 | 9.77 | 9.10 | CC(=O)N[C@@H](CCCNC(=N)N)C(=O)N[C@H]1CCCNC(=O)CC[C@@H](C(N)=O)NC(=O)[C@H](Cc2c[nH]c3ccccc23)NC(=O)[C@H](CCCNC(=N)N)NC(=O)[C@@H](Cc2ccccc2C(F)(F)F)NC(=O)[C@H](CCC(N)=O)NC1=O [Example 115, Ac-Arg-cyclo(Orn-Gln-D-Phe(2-CF3)-Arg-Trp-Glu)-NH2]
79 | 97 | 8.15 | 6.89 |  | 9.00 | CC(=O)N[C@@H](CCCNC(=N)N)C(=O)N[C@H]1CCC(=O)NCCC[C@@H](C(N)=O)NC(=O)[C@H](Cc2c[nH]c3ccccc23)NC(=O)[C@H](CCCNC(=N)N)NC(=O)[C@@H](Cc2ccccc2Cl)NC(=O)[C@H](CCC(N)=O)NC1=O [Example 34, Ac-Arg-cyclo(Glu-Gln-D-Phe(2-Cl)-Arg-Trp-Orn)-NH2]
48 | 85 | 8.00 | 6.40 | 9.70 | 8.40 | CC(=O)N[C@H](CCCNC(=N)N)C(=O)N[C@H]1CC(=O)NCCCC[C@@H](C(N)=O)NC(=O)[C@H](Cc2c[nH]c3ccccc23)NC(=O)[C@H](CCCNC(=N)N)NC(=O)[C@@H](Cc2ccccc2Cl)NC(=O)[C@H](CCC(N)=O)NC1=O [Example 79, Ac-D-Arg-cyclo(Asp-Gln-D-Phe(2-Cl)-Arg-Trp-Lys)-NH2]
